Experimental data published in publication PMC3010197 (Biochemistry, 2010).
Several values for one entry are separate records, joined by “and”; a condition that tells them apart may be missing. Equal values may be shown once. Read-outs that look alike come from different tables or passages of the source.

Experiments:
[1] = biological target: T1, PfNic (Plasmodium falciparum nicotinamidase) (Plasmodium falciparum, UniProt O97284); assay type: biochemical
[2] = biological target: T2, Pnc1 (Saccharomyces cerevisiae nicotinamidase) (Saccharomyces cerevisiae, UniProt P53184); assay: Substrate specificity: relative rates for nicotinamide analogues; assay type: biochemical
T2 sequence (P53184 1-216): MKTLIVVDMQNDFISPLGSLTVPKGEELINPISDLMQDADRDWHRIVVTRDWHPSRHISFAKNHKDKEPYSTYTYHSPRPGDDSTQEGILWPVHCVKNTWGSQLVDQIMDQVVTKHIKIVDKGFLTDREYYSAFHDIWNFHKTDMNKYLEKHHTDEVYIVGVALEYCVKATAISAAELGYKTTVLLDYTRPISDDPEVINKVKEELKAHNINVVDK

[3] = biological target: T3, SpNic (Streptococcus pneumoniae nicotinamidase) (Streptococcus pneumoniae, UniProt A0A0H2UR34); assay type: biochemical
[4] = biological target: T1, PfNic (Plasmodium falciparum nicotinamidase); assay: biochemical
[5] = biological target: T4, BbNic (Borrelia burgdorferi nicotinamidase) (Borreliella burgdorferi, UniProt O50718); assay type: biochemical
nicotinamidases = assay: Class-wide statements for all nicotinamidases studied; assay type: biochemical
[6] = no reference given; cited from earlier work
[7] = biological target: T2, Pnc1 (Saccharomyces cerevisiae nicotinamidase); assay: Inhibition analysis, GDH coupled nicotinamidase assay; assay type: biochemical; conditions: Km of nicotinamide over Ki of nicotinaldehyde
[8] = biological target: S. cerevisiae nicotinamidase; conditions: reported as non-competitive; cited from earlier work
[9] = tested on: Bovine glutamate dehydrogenase (GDH); conditions: GDH Km for NADPH; cited from earlier work
[10] = biological target: T4, BbNic (Borrelia burgdorferi nicotinamidase); assay: Steady state kinetics of nicotinamide hydrolysis, HPLC assay; assay type: biochemical; conditions: substrate nicotinamide, 100 mM phosphate pH 7.3
[11] = biological target: T3, SpNic (Streptococcus pneumoniae nicotinamidase); assay: Steady state progress curve analysis, GDH coupled assay; assay type: biochemical; conditions: substrate nicotinamide, 100 µM nicotinamide, pH 7.3
SPNic C136A mutant = assay: Nicotinamidase catalytic rate of SpNic and mutants; assay type: biochemical, Streptococcus pneumoniae; conditions: 200 µM NAM, 37 °C, HPLC assay
SPNic C136S mutant = assay: Nicotinamidase catalytic rate of SpNic and mutants; assay type: biochemical, Streptococcus pneumoniae; conditions: 200 µM NAM, 37 °C, HPLC assay
[12] = biological target: T2, Pnc1 (Saccharomyces cerevisiae nicotinamidase); assay: Steady state progress curve analysis, GDH coupled assay; conditions: substrate nicotinamide, 100 µM nicotinamide, pH 7.3
Steady state analysis = substrate: NC(=O)c1cccnc1; assay: Steady state analysis; assay type: biochemical, Caenorhabditis elegans; conditions: other: substrate nicotinamide, initial rates, pH 7.3
[13] = footnote b: HPLC assay, 500 µM analogue, pH 7.3, 37 °C
[14] = footnote a: GDH coupled fluorescence assay, 500 µM analogue, pH 7.3

Molecule: C[n+]1cccc(C(N)=O)c1 [compound 14, 1-Methylnicotinamide]
- Relative rate (nicotinamide = 1.00) [1, 13]: 0
- Relative rate (nicotinamide = 1.00) [2, 13]: 0
- Relative rate (nicotinamide = 1.00) [3, 13]: 0

Molecule: COC(=O)c1cccnc1 [compound 11, methylnicotinate]
- Relative rate (nicotinamide = 1.00) [1, 13]: 65.0
- Relative rate (nicotinamide = 1.00) ([1]; footnote b: HPLC assay, 500 µM analogue, pH 7.3, 37 °C, listed as methylnicotinate): 65
- steady state rate constant of turnover ([1]; methylnicotinate as substrate): 18 s⁻¹
- Relative rate (nicotinamide = 1.00) [2, 13]: 0.15
- Relative rate (nicotinamide = 1.00) [3, 13]: 0.035

Molecule: O=Cc1ccc(F)nc1 [compound 21, 6-Fluoro-3-pyridinecarboxaldehyde]
- Ki [4]: 4.9 µM

Molecule: N#Cc1cccnc1 [compound 23, 3-cyanopyridine]
- Ki [4]: 1000 µM

Molecule: Cc1ccc(C(N)=O)cn1 [compound 5, 6-methylnicotinamide]
- Relative rate (nicotinamide = 1.00) [5, 14]: 0.45
- Relative rate (nicotinamide = 1.00) [1, 14]: 0.40
- Relative rate (nicotinamide = 1.00) [2, 14]: 0
- Relative rate (nicotinamide = 1.00) [3, 14]: 0.11

Molecule: Cc1cncc(C=O)c1 [compound 19, 5-methylnicotinaldehyde]
- Ki [4]: 0.023 ± 0.005 µM

Molecule: O=C(O)c1cccnc1 [nicotinic acid, reference compound]
- effect on nicotinamidase rates (product inhibition) (nicotinamidases; nicotinic acid up to 500 µM, all enzymes, data not shown): do not vary
- pKa [6]: ~3

Molecule: O=Cc1cccnc1 [compound 16, nicotinaldehyde]
- Ki [4]: 0.034 ± 0.007 µM
- Km/Ki [7]: 7.6
- factor by which Ki is smaller than the Km for nicotinamide (nicotinamidases; across all enzymes studied except yeast pnc1): 91–3450
- mode of inhibition (double reciprocal plots) (nicotinamidases; versus nicotinamide, in all cases): competitive inhibition
- Ki [8]: 68 µM

Molecule: NC(=O)C1=CN([C@@H]2O[C@H](COP(=O)(O)OP(=O)(O)OC[C@H]3O[C@@H](n4cnc5c(N)ncnc54)[C@H](OP(=O)(O)O)[C@@H]3O)[C@@H](O)[C@H]2O)C=CC1 [NADPH, nicotinamide adenine dinucleotide phosphate reduced form]
- Km [9]: 28 µM

Molecule: NC(=O)c1cccnc1Cl [compound 3, 2-chloronicotinamide]
- Relative rate (nicotinamide = 1.00) [5, 13]: 0
- Relative rate (nicotinamide = 1.00) [1, 13]: 0
- Relative rate (nicotinamide = 1.00) [2, 13]: 0
- Relative rate (nicotinamide = 1.00) [3, 13]: 0

Molecule: NC(=S)c1cccnc1 [compound 10, Thionicotinamide]
- Relative rate (nicotinamide = 1.00) ([5]; no method footnote): 0
- Relative rate (nicotinamide = 1.00) ([1]; no method footnote): 0
- Relative rate (nicotinamide = 1.00) ([2]; no method footnote): 0.44
- Relative rate (nicotinamide = 1.00) ([3]; no method footnote): 0

Molecule: COc1cncc(C(N)=O)c1 [compound 2, 5-Methoxynicotinamide]
- Relative rate (nicotinamide = 1.00) [5, 13]: 2.21
- Relative rate (nicotinamide = 1.00) [1, 13]: 6.46
- Relative rate (nicotinamide = 1.00) [2, 13]: 2.06
- Relative rate (nicotinamide = 1.00) [3, 13]: 1.37

Molecule: C[n+]1ccc(C(N)=O)cc1 [compound 15, 1-methyl isonicotinamide]
- Relative rate (nicotinamide = 1.00) [1, 13]: 0
- Relative rate (nicotinamide = 1.00) [2, 13]: 0
- Relative rate (nicotinamide = 1.00) [3, 13]: 0

Molecule: COc1ccncc1C(N)=O [compound 7, 4-Methoxynicotinamide]
- Relative rate (nicotinamide = 1.00) [5, 13]: 0.20
- Relative rate (nicotinamide = 1.00) [1, 13]: 0.12
- Relative rate (nicotinamide = 1.00) [2, 13]: 0.050
- Relative rate (nicotinamide = 1.00) [3, 13]: 0.065

Molecule: CCOC(=O)c1cccnc1 [compound 12, ethylnicotinate]
- Relative rate (nicotinamide = 1.00) [1, 13]: 0.023
- Relative rate (nicotinamide = 1.00) [2, 13]: 0.044
- Relative rate (nicotinamide = 1.00) [3, 13]: 0.0086

Molecule: NC(=O)c1ccncc1 [compound 8, isonicotinamide]
- Relative rate (nicotinamide = 1.00) [1, 13]: 0
- Relative rate (nicotinamide = 1.00) [2, 13]: 0
- Relative rate (nicotinamide = 1.00) [3, 13]: 0

Molecule: NC(=O)c1ccc(Cl)nc1 [compound 4, 6-chloronicotinamide]
- Relative rate (nicotinamide = 1.00) [5, 13]: 0
- Relative rate (nicotinamide = 1.00) [1, 13]: 0
- Relative rate (nicotinamide = 1.00) [2, 13]: 0.17
- Relative rate (nicotinamide = 1.00) [3, 13]: 0.018

Molecule: NC(=O)c1ccnc(N)c1 [compound 9, 2-Aminoisonicotinamide]
- Relative rate (nicotinamide = 1.00) [1, 13]: 0
- Relative rate (nicotinamide = 1.00) [2, 13]: 0
- Relative rate (nicotinamide = 1.00) [3, 13]: 0

Molecule: O=C(Oc1ccccc1)c1cccnc1 [compound 13, phenylnicotinate]
- Relative rate (nicotinamide = 1.00) [1, 13]: 0.13
- Relative rate (nicotinamide = 1.00) [2, 13]: 0.031
- Relative rate (nicotinamide = 1.00) [3, 13]: 0.031

Molecule: Cc1cncc(C(N)=O)c1 [compound 1, 5-methylnicotinamide]
- Relative rate (nicotinamide = 1.00) [5, 14]: 0.51
- Relative rate (nicotinamide = 1.00) [1, 14]: 3.30
- Relative rate (nicotinamide = 1.00) [2, 14]: 0.80
- Relative rate (nicotinamide = 1.00) [3, 14]: 1.63

Molecule: CC(=O)c1cccnc1 [compound 24, acetylpyridine]
- Ki [4]: 10 µM

Molecule: NC(=O)c1ccc(N)nc1 [compound 6, 6-aminonicotinamide]
- Relative rate (nicotinamide = 1.00) [1, 14]: 0.45
- Relative rate (nicotinamide = 1.00) [2, 14]: 0.20
- Relative rate (nicotinamide = 1.00) [3, 14]: 0.36

Molecule: NC(=O)c1cccnc1 [nicotinamide]
- Km ([10]; Michaelis-Menten fit): 36.7 ± 7.5 µM
- kcat ([10]; confirmed by HPLC assay): 0.0030 ± 0.0002 ^b s^−1
- kcat [11]: 2.1 s⁻¹
- Relative rate (nicotinamide = 1.00) ([5]; no method footnote): 1.00
- Relative rate (nicotinamide = 1.00) ([1]; no method footnote): 1.00
- Relative rate (nicotinamide = 1.00) ([2]; no method footnote): 1.00
- Relative rate (nicotinamide = 1.00) ([3]; no method footnote): 1.00
- Catalytic rate (kobs) (SPNic C136A mutant): < 10^−6 s^−1
- Catalytic rate (kobs) (SPNic C136S mutant): < 10^−6 s^−1
- kcat [12]: 3.8 s^−1 and 3.8 ± 0.1 ^b s^−1

B1: CePNC2 (Caenorhabditis elegans nicotinamidase 2) (Caenorhabditis elegans) (protein)
chain: MGVVQNEQDIREKMKNELISLVNEIDLIPELDRLLDDFIENKTWNEDTQELFTRVVLKPFTTLRTSLLVVDFQNDFVTGSLSIKEGDAEQDPLEALPHVNNLLENLNWNMIVYTQDWHPSNHISFFEHARNPDRELAPEDKSRKLRPFDIVRFVKPVSTIQVLYPSHCIQGGWGSQLHLGLQRIDGAHYIKKGADVYVDAYSAFSDNCGIKQSELEMLLRKNDINAVIGCGLAYDICVMHTLKDASKHGFLTCIVKSGSKGLSSLKMDEANKMFQKRGVAIIDDEMAQLISRREAFPIEWIRLLVHQAQSELHGKK
- Km (Steady state analysis): 76 ± 10 µM
- kcat (Steady state analysis): 0.28 ± 0.013 s⁻¹

B2: CePNC1 (Caenorhabditis elegans nicotinamidase 1) (Caenorhabditis elegans) (protein)
chain: DNSATTNNNTILGNQSLEAIPEQLSELTGITVEESERIMESWLGNRQLDLRTSVLFDQEVLSRLRSLRVALLVVDFQNDFVDGSLKIGDGDAGQEPSSAITPLNELLQLSSWDLVVYTKDWHPHNHISFLSQAHNSDRVMDEKDENKTLGFFDSVQFLKPIKTEQVLYPDHCIQKSWGSDIHPEIYIADNAEYIMKGVDPYLDSYSAFNDNNGRSKTELEDLLRRENIDAVVIAGLAYDICVRFTCLDAVKQNFLAAVIPECSAGLTKKGIEESEMAFKKQGVAMISKDEARGITEGGFLPREWVQRIVKK
- Km (Steady state analysis): 113 ± 11 µM
- kcat (Steady state analysis): 3.1 ± 0.12 s⁻¹
